This note sets out measurements from US10626144B2, “Peptide derivatives and uses thereof” (Nosopharm, priority 2014, dated 2020).

Like-named read-outs stand apart in the source and are kept apart here. Square brackets hold non-standard residues; d marks the D form. Peptide text beside a SMILES is read from it. Phe(3,4-(OMe)2) = COc1ccc(C[C@H](N)C(=O)O)cc1OC; Phe(3-F) = N[C@@H](Cc1cccc(F)c1)C(=O)O; Dab(3S-OH) = NC[C@H](O)[C@H](N)C(=O)O; Phe(2-F) = N[C@@H](Cc1ccccc1F)C(=O)O; ΔZArg = N=C(N)NCC/C=C(\N)C(=O)O; dOrn = NCCC[C@@H](N)C(=O)O

In assay [1] the test system is Staphylococcus aureus ATCC 13709. The assay can be described thus: MIC, broth microdilution (CLSI), reference strain. The conditions noted are these: CAMHB.
In assay [2] the test system is Escherichia coli ATCC 25922. The assay can be described thus: MIC, broth microdilution (CLSI), reference strain. The conditions noted are these: CAMHB. (Dilution methods test growth across graded concentrations, often in twofold steps.)
Assay [3] has as its system Pseudomonas aeruginosa ATCC 27853. Briefly: MIC, broth microdilution (CLSI), reference strain. Particulars: CAMHB.
The subject of another assay is Ec #4 (GUE). Briefly: MIC / resistance profile, multidrug-resistant strain. The conditions noted are these: multidrug-resistant E. coli GUE.
The subject of the next assay is Ec #3 (EGB957). The description is as above. The conditions noted are these: multidrug-resistant E. coli EGB957.
The subject of another assay is Ec #5 (DSM22315). Described as above. Particulars: multidrug-resistant E. coli DSM22315.
The next assay has as its system Ec #1 (NCTC13476). The assay is described as above. Particulars: multidrug-resistant E. coli NCTC13476.
Another assay has as its system Ec #2 (MIN). The assay is described as above. Particulars: multidrug-resistant E. coli MIN.
Assay [4] addresses N-type calcium channels (Cav2.2) (Rattus norvegicus (Rat), UniProt Q02294). Briefly: biochemical. The format is binding.
In assay [5] the test system is Acinetobacter baumannii ATCC 19606. Briefly: MIC, broth microdilution (CLSI), reference strain. Particulars: CAMHB.
Where [6] appears, read: class symbol, rat cerebral cortex, [125I]ω-conotoxin GVIA 0.001 nM, 30 minutes at room temperature, read-out: IC50 Cav2.2.

What is called IC50 is the concentration that gives 50% inhibition. On to `COc1ccc(C[C@H](NC(=O)[C@@H]2CCCN2C(=O)[C@@H](CCCN)NC(=O)CNC(=O)[C@H](C)NC(=O)[C@@H](NC(=O)[C@@H](N)CCCCN)[C@@H](O)CN)C(=O)N[C@@H](CCCCN)C(=O)N/C(=C\CCNC(=N)N)C(=O)O)cc1` [24.154] (H-K[Dab(3S-OH)]AG[dOrn]PY(Me)K[ΔZArg]-OH), for which the “Sa: MIC Staphylococcus aureus ATCC 13709” value in assay [1] is “++ (≤8 μg/mL)”. The “Ec: MIC Escherichia coli ATCC 25922” value in assay [2] is recorded as “++ (≤8 μg/mL)”. For the same compound, the “Pa: MIC Pseudomonas aeruginosa ATCC 27853” value in assay [3] was “− (>32 μg/mL)”. Moreover, the “MIC Ec#4” value with Ec #4 (GUE) was “++ (≤8 μg/mL)”. Further, the “MIC Ec#3” value against Ec #3 (EGB957) is listed as “++ (≤8 μg/mL)”. For the same compound, in the assay with Ec #5 (DSM22315), the “MIC Ec#5” value is reported as “++ (≤8 μg/mL)”. Further, the “MIC Ec#1” value against Ec #1 (NCTC13476) is “++ (≤8 μg/mL)”. The “MIC Ec#2” value against Ec #2 (MIN) was “++ (≤8 μg/mL)”. For the same compound, the IC50 in assay [4] (setting [6]) was above 300 nM. Moreover, the “Ab: MIC Acinetobacter baumannii ATCC 19606” value in assay [5] was “− (>32 μg/mL)”.
As to `COc1ccc(C[C@H](NC(=O)[C@@H]2CCCN2C(=O)[C@@H](CCCN)NC(=O)CNC(=O)[C@H](C)NC(=O)[C@@H](NC(=O)[C@@H](N)CCCCN)[C@@H](O)CN)C(=O)N[C@@H](CCCCN)C(=O)N/C(=C\CCNC(=N)N)C(=O)O)cc1OC` [24.85] (H-K[Dab(3S-OH)]AG[dOrn]P[Phe(3,4-(OMe)2)]K[ΔZArg]-OH), the “Sa: MIC Staphylococcus aureus ATCC 13709” value in assay [1] was “+ (≤32 μg/mL)”. Moreover, the “Ec: MIC Escherichia coli ATCC 25922” value in assay [2] is “++ (≤8 μg/mL)”. Also, the “Pa: MIC Pseudomonas aeruginosa ATCC 27853” value in assay [3] is recorded as “− (>32 μg/mL)”. In addition, the “MIC Ec#4” value against Ec #4 (GUE) was “++ (≤8 μg/mL)”. The “MIC Ec#3” value against Ec #3 (EGB957) is “+ (≤32 μg/mL)”. Besides, the “MIC Ec#5” value in the assay with Ec #5 (DSM22315) is reported as “+ (≤32 μg/mL)”. Further, in the assay on Ec #1 (NCTC13476), the “MIC Ec#1” value is on record as “++ (≤8 μg/mL)”. The “MIC Ec#2” value with Ec #2 (MIN) is “+ (≤32 μg/mL)”. In addition, the IC50 in assay [4] was above 300 nM; in assay [4] (value in brackets, rat cerebral cortex, [125I]ω-conotoxin GVIA 0.001 nM, read-out: IC50 Cav2.2), 1200 nM. Moreover, the “Ab: MIC Acinetobacter baumannii ATCC 19606” value in [5] is reported as “− (>32 μg/mL)”.
With `C[C@H](NC(=O)[C@@H](NC(=O)[C@@H](N)CCCCN)[C@@H](O)CN)C(=O)NCC(=O)N[C@H](CCCN)C(=O)N1CCC[C@H]1C(=O)N[C@@H](Cc1ccccc1F)C(=O)N[C@@H](CCCCN)C(=O)N/C(=C\CCNC(=N)N)C(=O)O` [24.151] (H-K[Dab(3S-OH)]AG[dOrn]P[Phe(2-F)]K[ΔZArg]-OH), the “Sa: MIC Staphylococcus aureus ATCC 13709” value in assay [1] is on record as “++ (≤8 μg/mL)”. The “Ec: MIC Escherichia coli ATCC 25922” value in [2] is on record as “++ (≤8 μg/mL)”. Moreover, in assay [3], the “Pa: MIC Pseudomonas aeruginosa ATCC 27853” value is recorded as “− (>32 μg/mL)”. In the assay with Ec #4 (GUE), the “MIC Ec#4” value is “+ (≤32 μg/mL)”. Moreover, the “MIC Ec#3” value against Ec #3 (EGB957) is reported as “+ (≤32 μg/mL)”. The “MIC Ec#5” value against Ec #5 (DSM22315) is given as “++ (≤8 μg/mL)”. Also, the “MIC Ec#1” value against Ec #1 (NCTC13476) is recorded as “+ (≤32 μg/mL)”. Also, the “MIC Ec#2” value against Ec #2 (MIN) is “+ (≤32 μg/mL)”. Also, in assay [4] (setting [6]), the IC50 was above 300 nM. For the same compound, the “Ab: MIC Acinetobacter baumannii ATCC 19606” value in [5] is “− (>32 μg/mL)”.
As for `C[C@H](NC(=O)[C@@H](NC(=O)[C@@H](N)CCCCN)[C@@H](O)CN)C(=O)NCC(=O)N[C@H](CCCN)C(=O)N1CCC[C@H]1C(=O)N[C@@H](Cc1cccc(F)c1)C(=O)N[C@@H](CCCCN)C(=O)N/C(=C\CCNC(=N)N)C(=O)O` [24.152] (H-K[Dab(3S-OH)]AG[dOrn]P[Phe(3-F)]K[ΔZArg]-OH), the “Sa: MIC Staphylococcus aureus ATCC 13709” value in assay [1] was “++ (≤8 μg/mL)”. For the same compound, the “Ec: MIC Escherichia coli ATCC 25922” value in assay [2] is recorded as “++ (≤8 μg/mL)”. Besides, the “Pa: MIC Pseudomonas aeruginosa ATCC 27853” value in assay [3] is on record as “− (>32 μg/mL)”. The “MIC Ec#4” value in the assay with Ec #4 (GUE) is reported as “+ (≤32 μg/mL)”. Also, the “MIC Ec#3” value in the assay with Ec #3 (EGB957) is on record as “+ (≤32 μg/mL)”. In addition, in the assay on Ec #5 (DSM22315), the “MIC Ec#5” value is “++ (≤8 μg/mL)”. For the same compound, the “MIC Ec#1” value against Ec #1 (NCTC13476) is given as “+ (≤32 μg/mL)”. The “MIC Ec#2” value in the assay with Ec #2 (MIN) is recorded as “+ (≤32 μg/mL)”. For the same compound, in assay [4] (setting [6]), the IC50 is above 300 nM. Also, the “Ab: MIC Acinetobacter baumannii ATCC 19606” value in [5] is “− (>32 μg/mL)”.
